Consider 6 compounds from ChEMBL document CHEMBL1126229, “Enol lactone derivatives as inhibitors of human neutrophil elastase and trypsin-like proteases” (Bioorg Med Chem Lett, 1992).

In experiment [1] the target is T1, Serine protease 1 (Homo sapiens, UniProt P07477). Kind of experiment: Binding constant on trypsin was determined at 0 percent and at 97 minutes for maximum inhibition with 45 minutes persistence of inhibition.
In experiment [2] the target is T1, Serine protease 1. Kind of experiment: Specificity constant on trypsin was determined at 0 percent and at 97 minutes for maximum inhibition with 45 minutes persistence of inhibition.
Experiment [3] addresses T2, Urokinase-type plasminogen activator (Homo sapiens, UniProt P00749). Kind of experiment: Rate constant of deacylation for Urokinase-type plasminogen activator; NM - Fast and could not be measured.
In experiment [4] the target is T2, Urokinase-type plasminogen activator. Kind of experiment: Binding constant on Urokinase-type plasminogen activator was determined at 0 percent and at 97 minutes for maximum inhibition and no enzyme activity was recovered over the 2 h-time.
For experiment [5] the target is unchanged. Kind of experiment: Specificity constant on Urokinase-type plasminogen activator was determined at 0 percent and at 97 minutes for maximum inhibition and no enzyme activity was recovered over the 2 h-time.
The target of experiment [6] is T1, Serine protease 1. As to the kind of experiment: Rate constant of acylation on trypsin was determined at 0 percent and at 97 minutes for maximum inhibition with 45 minutes persistence of inhibition.
The target of experiment [7] is T1, Serine protease 1. Kind of experiment: Rate constant of deacylation for trypsin; Fast and could not be measured.
The target of experiment [8] is T2, Urokinase-type plasminogen activator. As to the kind of experiment: Rate constant of acylation on Urokinase-type plasminogen activator […] was determined at 0 percent and at 97 minutes for maximum inhibition and no enzyme activity was recovered over the 2 h-time.
For experiment [9] the target is unchanged.
In experiment [10] the target is Chymotrypsinogen A (Bos taurus) (UniProt P00766).
Experiment [11] has the same target. The source holds these as a separate data set.
Experiment [12] deals with T1, Serine protease 1.
Description: Specificity constant on trypsin was determined at 0 percent and at 95 minutes for maximum inhibition and no enzyme activity was recovered over the 2 h-time
Experiment [13] concerns the target T1, Serine protease 1. The source holds these as a separate data set.
Experiment [14] addresses T2, Urokinase-type plasminogen activator. This is another data set of the same source.
Experiment [15] shares this target. The source holds these as a separate data set.
Description: Specificity constant on Urokinase-type plasminogen activator was determined at 0 percent and at 86 minutes for maximum inhibition and no enzyme activity was recovered over the 2 h-time
The target in experiment [16] is Chymotrypsinogen A (Bos taurus) (UniProt P00766). The source holds these as a separate data set.
The target in experiment [17] is T1, Serine protease 1. The source holds these as a separate data set.
The target of experiment [18] is Chymotrypsinogen A (Bos taurus, UniProt P00766). Kind of experiment: Rate constant of deacylation for alpha-chymotrypsin; Fast and could not be measured.
Experiment [19] addresses T3, Chymotrypsin-like elastase family member 2A (Sus scrofa) (UniProt P08419).
T3 sequence (whole entry): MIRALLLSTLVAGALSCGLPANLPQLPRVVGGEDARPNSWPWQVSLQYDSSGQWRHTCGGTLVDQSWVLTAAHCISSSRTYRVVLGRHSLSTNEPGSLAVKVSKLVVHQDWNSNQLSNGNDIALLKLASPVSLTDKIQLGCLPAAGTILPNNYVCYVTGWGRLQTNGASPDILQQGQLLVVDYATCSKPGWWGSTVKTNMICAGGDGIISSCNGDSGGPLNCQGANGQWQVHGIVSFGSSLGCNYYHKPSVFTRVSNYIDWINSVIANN
As to the kind of experiment: Specificity constant on porcine pancreatic elastase was determined at 30 percent and at 99 minutes for maximum inhibition and no enzyme activity was recovered over the 2 h-time.

Experiment [20] concerns the target Chymotrypsinogen A (Bos taurus) (UniProt P00766). As to the kind of experiment: Rate constant of acylation on alpha-chymotrypsin was determined at 10 percent and at 98 minutes for maximum inhibition and no enzyme activity was recovered over the 2 h-time.
Experiment [21] concerns the target T1, Serine protease 1. Kind of experiment: Specificity constant on trypsin was determined at 10 percent and at 83 minutes for maximum inhibition and no enzyme activity was recovered over the 2 h-time.
The target of experiment [22] is T3, Chymotrypsin-like elastase family member 2A (Sus scrofa). Kind of experiment: Rate constant of acylation on porcine pancreatic elastase was determined at 30 percent and at 99 minutes for maximum inhibition and no enzyme activity was recovered over the 2 h-time.
Experiment [23] has as its target T4, Neutrophil elastase (Homo sapiens) (UniProt P08246).
T4 sequence (whole entry): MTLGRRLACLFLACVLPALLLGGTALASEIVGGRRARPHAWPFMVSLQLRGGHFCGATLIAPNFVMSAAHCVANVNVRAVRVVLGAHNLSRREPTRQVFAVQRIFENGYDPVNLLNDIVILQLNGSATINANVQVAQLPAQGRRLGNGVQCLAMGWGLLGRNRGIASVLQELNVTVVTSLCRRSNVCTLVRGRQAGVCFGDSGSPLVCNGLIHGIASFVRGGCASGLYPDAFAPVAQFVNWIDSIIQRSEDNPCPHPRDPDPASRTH
Kind of experiment: Rate constant of acylation on human neutrophil elastase was determined at 30 percent and at 80 minutes for maximum inhibition and no enzyme activity was recovered over the 2 h-time.

The target of experiment [24] is T4, Neutrophil elastase (Homo sapiens). Kind of experiment: Specificity constant on human neutrophil elastase was determined at 30 percent and at 80 minutes for maximum inhibition and no enzyme activity was recovered over the 2 h-time.
In experiment [25] the target is T3, Chymotrypsin-like elastase family member 2A (Sus scrofa). As to the kind of experiment: Binding constant on porcine pancreatic elastase was determined at 30 percent and at 99 minutes for maximum inhibition and no enzyme activity was recovered over the 2 h-time.
Experiment [26] deals with T4, Neutrophil elastase (Homo sapiens). Kind of experiment: Binding constant on human neutrophil elastase was determined at 30 percent and at 80 minutes for maximum inhibition and no enzyme activity was recovered over the 2 h-time.
The target in experiment [27] is T1, Serine protease 1. As to the kind of experiment: Binding constant on trypsin was determined at 10 percent and at 83 minutes for maximum inhibition and no enzyme activity was recovered over the 2 h-time.
Experiment [28] deals with T1, Serine protease 1. Kind of experiment: Rate constant of acylation on trypsin was determined at 10 percent and at 83 minutes for maximum inhibition and no enzyme activity was recovered over the 2 h-time.
For experiment [29], the target named is Chymotrypsinogen A (Bos taurus) (UniProt P00766). As to the kind of experiment: Binding constant on alpha-chymotrypsin was determined at 10 percent and at 98 minutes for maximum inhibition and no enzyme activity was recovered over the 2 h-time.
Experiment [30] shares this target. As to the kind of experiment: Specificity constant on alpha-chymotrypsin was determined at 10 percent and at 98 minutes for maximum inhibition and no enzyme activity was recovered over the 2 h-time.
The target is the same in experiment [31]. As to the kind of experiment: Binding constant on alpha-chymotrypsin was determined at 45 percent and at 96 minutes for maximum inhibition and no enzyme activity was recovered over the 2 h-time.
Experiment [32] concerns the target T1, Serine protease 1. As to the kind of experiment: Rate constant of deacylation for trypsin.
The target in experiment [33] is T2, Urokinase-type plasminogen activator. Kind of experiment: Rate constant of deacylation for Urokinase-type plasminogen activator.
For experiment [34], the target named is T4, Neutrophil elastase (Homo sapiens). As to the kind of experiment: Binding constant on human neutrophil elastase was determined at 20 percent and at 95 minutes for maximum inhibition and no enzyme activity was recovered over the 2 h-time.
For experiment [35], the target named is T3, Chymotrypsin-like elastase family member 2A (Sus scrofa). Kind of experiment: Specificity constant on porcine pancreatic elastase was determined at 15 percent and at 35 minutes for maximum inhibition with 0 minutes persistence of inhibition.
Experiment [36] shares this target. As to the kind of experiment: Rate constant of acylation on porcine pancreatic elastase was determined at 15 percent and at 35 minutes for maximum inhibition with 0 minutes persistence of inhibition.
Experiment [37] has the same target. As to the kind of experiment: Binding constant on porcine pancreatic elastase was determined at 15 percent and at 35 minutes for maximum inhibition with 0 minutes persistence of inhibition.
Experiment [38] addresses T4, Neutrophil elastase (Homo sapiens). Kind of experiment: Specificity constant on human neutrophil elastase was determined at 20 percent and at 95 minutes for maximum inhibition and no enzyme activity was recovered over the 2 h-time.
The target is the same in experiment [39]. As to the kind of experiment: Rate constant of acylation on human neutrophil elastase was determined at 20 percent and at 95 minutes for maximum inhibition and no enzyme activity was recovered over the 2 h-time.
Experiment [40] has as its target T3, Chymotrypsin-like elastase family member 2A (Sus scrofa). As to the kind of experiment: Specificity constant on porcine pancreatic elastase was determined at 10 percent and at 73 minutes for maximum inhibition and no enzyme activity was recovered over the 2 h-time.
For experiment [41] the target is unchanged. As to the kind of experiment: Binding constant on porcine pancreatic elastase was determined at 10 percent and at 73 minutes for maximum inhibition and no enzyme activity was recovered over the 2 h-time.
Experiment [42] deals with T4, Neutrophil elastase (Homo sapiens). Kind of experiment: Specificity constant on human neutrophil elastase was determined at 30 percent and at 10 minutes for maximum inhibition with 0 minutes persistence of inhibition.
The target is the same in experiment [43]. Kind of experiment: Binding constant on human neutrophil elastase was determined at 30 percent and at 10 minutes for maximum inhibition with 0 minutes persistence of inhibition.
Experiment [44] shares this target. Kind of experiment: Rate constant of acylation on human neutrophil elastase was determined at 30 percent and at 10 minutes for maximum inhibition with 0 minutes persistence of inhibition.
The target in experiment [45] is T3, Chymotrypsin-like elastase family member 2A (Sus scrofa). As to the kind of experiment: Rate constant of acylation on porcine pancreatic elastase was determined at 10 percent and at 73 minutes for maximum inhibition and no enzyme activity was recovered over the 2 h-time.

T1 sequence (P07477 whole entry): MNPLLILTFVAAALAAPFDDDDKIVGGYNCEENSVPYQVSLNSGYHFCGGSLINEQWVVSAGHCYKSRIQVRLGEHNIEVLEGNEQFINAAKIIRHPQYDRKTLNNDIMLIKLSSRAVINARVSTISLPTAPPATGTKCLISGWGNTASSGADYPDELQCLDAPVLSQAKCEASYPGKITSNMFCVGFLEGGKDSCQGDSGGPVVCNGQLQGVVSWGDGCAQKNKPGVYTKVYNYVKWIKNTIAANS

For `C=C1CCC(c2ccc(NC(=N)N)cc2)C(=O)O1` (stereo unspecified), the Ks/i was 0.23 µM in experiment [1] and 0.33 µM in experiment [4]. Further, the results for the ka/Ki in [2] and in experiment [5] were 1.03e+06 M⁻¹ s⁻¹ and 1.98e+07 M⁻¹ s⁻¹, respectively. The Kd entry in [3] and in experiment [7] was “Not measurable” throughout. The ka turned out to be 14.3 min⁻¹ in [6] and 391 min⁻¹ in experiment [8].

Regarding `C=C1C[C@H](c2ccc(NC(=N)N)cc2)[C@@H](NC(=O)c2ccccc2)C(=C)O1`, the ka in experiment [9] came to 4.83 min⁻¹; in [16] it was 9.51 min⁻¹; in experiment [17] it was 10.2 min⁻¹. The Ks/i in [10] turned out to be 0.46 µM; in experiment [13], 10 µM; in experiment [14] it was 6 µM. Further, the ka/Ki in experiment [11] was found to be 350000 M⁻¹ s⁻¹; in [12], 17000 M⁻¹ s⁻¹; in experiment [15] it was 13300 M⁻¹ s⁻¹. The Kd is 2.5e-05 s⁻¹ in [7] and “Not measurable” in experiment [18].

With `C=C1CCC(C(C)C)C(=O)O1` (stereo unspecified), the ka/Ki in [19] stood at 83.3 M⁻¹ s⁻¹; in [21], 333 M⁻¹ s⁻¹; in [24], 34700 M⁻¹ s⁻¹; in [30], 667 M⁻¹ s⁻¹. Also, the ka in experiment [20] amounted to 3.2 min⁻¹; in experiment [22], 0.42 min⁻¹; in [23] it was 13 min⁻¹; in experiment [28], 0.45 min⁻¹. Besides, the Ks/i in [25] came to 88 µM; in [26], 6.25 µM; in experiment [27], 24 µM; in experiment [29], 89 µM.

In turn, `N=C(N)Nc1ccc([C@H]2C/C(=C\I)OC(=O)[C@@H]2NC(=O)c2ccccc2)cc1` had a Ks/i in [31] of 0.17 µM. The Kd stood at 8.3e-05 s⁻¹ in [32] and 1.3e-05 s⁻¹ in experiment [33].

For `C/C(Br)=C1/CCC(C(C)C)C(=O)O1` (stereo unspecified), the Ks/i in experiment [34] was 3 µM; in experiment [37] it was 48.7 µM. Further, the ka/Ki came to 333 M⁻¹ s⁻¹ in experiment [35] and 4500 M⁻¹ s⁻¹ in experiment [38]. For the same compound, the ka in experiment [36] was 1.12 min⁻¹; in experiment [39], 0.81 min⁻¹.

For the compound `C=C1CC(C)CC(=O)O1` (stereo unspecified), the ka/Ki is 167 M⁻¹ s⁻¹ in [40] and 500 M⁻¹ s⁻¹ in experiment [42]. Moreover, the Ks/i in experiment [41] was 393 µM; in experiment [43] it was 22.7 µM. Further, the values for the ka in [44] and in [45] were 0.6 min⁻¹ and 4.47 min⁻¹, respectively.
